Results on 17 compounds are retold here after patent US9617240B2 (TEIJIN PHARMA LIMITED, priority 2013, dated 2017).

Bounds are passed on as bounds.

T1 sequence (P80457 whole entry): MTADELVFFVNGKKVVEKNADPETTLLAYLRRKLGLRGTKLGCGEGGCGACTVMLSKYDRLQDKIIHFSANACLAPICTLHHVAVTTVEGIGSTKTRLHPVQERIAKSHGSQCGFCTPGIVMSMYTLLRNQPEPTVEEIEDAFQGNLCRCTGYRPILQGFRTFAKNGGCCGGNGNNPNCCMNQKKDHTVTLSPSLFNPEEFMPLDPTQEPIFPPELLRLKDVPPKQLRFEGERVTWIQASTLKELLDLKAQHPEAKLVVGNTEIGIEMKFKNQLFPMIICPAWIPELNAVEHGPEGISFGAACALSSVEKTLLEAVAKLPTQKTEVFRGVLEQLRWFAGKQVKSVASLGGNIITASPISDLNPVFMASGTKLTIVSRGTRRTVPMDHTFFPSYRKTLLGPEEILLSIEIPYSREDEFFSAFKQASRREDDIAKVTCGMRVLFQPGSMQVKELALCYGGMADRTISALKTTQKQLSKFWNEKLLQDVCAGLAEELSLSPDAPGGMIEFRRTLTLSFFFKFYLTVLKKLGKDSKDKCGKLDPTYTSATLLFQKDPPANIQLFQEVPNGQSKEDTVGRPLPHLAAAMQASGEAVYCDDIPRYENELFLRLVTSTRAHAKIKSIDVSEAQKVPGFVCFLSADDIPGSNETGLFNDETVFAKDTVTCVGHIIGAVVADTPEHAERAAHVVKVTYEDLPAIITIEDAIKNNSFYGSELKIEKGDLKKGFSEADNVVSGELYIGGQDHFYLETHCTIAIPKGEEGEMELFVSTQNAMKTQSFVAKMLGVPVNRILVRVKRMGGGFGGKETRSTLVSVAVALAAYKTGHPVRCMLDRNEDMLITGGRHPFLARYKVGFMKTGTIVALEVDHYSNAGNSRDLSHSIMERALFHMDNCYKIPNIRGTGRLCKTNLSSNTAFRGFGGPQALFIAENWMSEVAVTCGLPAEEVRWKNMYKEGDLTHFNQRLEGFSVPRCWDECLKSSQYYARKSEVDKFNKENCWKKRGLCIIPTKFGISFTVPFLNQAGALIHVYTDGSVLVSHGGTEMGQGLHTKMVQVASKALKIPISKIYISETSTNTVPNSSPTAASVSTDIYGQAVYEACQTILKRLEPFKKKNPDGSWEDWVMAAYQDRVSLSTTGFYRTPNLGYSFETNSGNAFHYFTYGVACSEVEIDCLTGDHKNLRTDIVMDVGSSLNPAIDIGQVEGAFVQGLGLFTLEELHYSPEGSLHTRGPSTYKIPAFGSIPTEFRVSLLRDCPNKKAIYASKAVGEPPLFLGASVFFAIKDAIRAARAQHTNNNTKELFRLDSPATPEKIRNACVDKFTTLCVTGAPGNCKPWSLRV

The test has as its target T1, oxidase type xanthine oxidase (derived from buttermilk) (Bos taurus, UniProt P80457).
T1 construct: oxidase type xanthine oxidase (derived from buttermilk, supplied by Calbiochem Novabiochem Corp.); purchased Calbiochem Novabiochem Corp; host or cells: buttermilk (natural source)
Kind of test: Xanthine oxidase inhibitory activity (absorbance change at 290 nm). Type of test: biochemical. To be noted: xanthine substrate, 100 mM phosphate buffer, absorbance at 290 nm for 5 minutes; read-out: Inhibitory Activity (50% inhibitory concentration with respect to oxidase type xanthine oxidase). The procedure: The xanthine oxidase inhibitory activity was measured for the compounds synthesized according to the above Examples.
After a test compound was dissolved in DMSO (manufactured by Sigma Co.) so that the concentration is 20 mM, the test compound was prepared and used at a desired concentration at the time of use.
The evaluation of the xanthine oxidase inhibitory activity of the compounds of the present invention was conducted by partially modifying the method described in the literature (Method Enzymatic Analysis, 1, 521-522, 1974). The present evaluation is based on the oxidase type xanthine oxidase inhibitory activity evaluation. That is, a xanthine (manufactured by Sigma Co.) solution prepared at 10 mM in advance using a 20 mM sodium hydroxide solution was adjusted to 30 μM using a 100 mM phosphate buffer solution, and 75 μL/well of each solution was added into a 96-well plate. Aliquots (1.5 μL/well) of each test sample, which was diluted with DMSO so that the concentration is 100 times the final concentration, were added into a 96-well plate, and after mixing, the absorbance at 290 nm was measured by a microplate reader SPECTRA MAX Plus 384 (manufactured by Molecular Devices, LLC). Subsequently, oxidase type xanthine oxidase (derived from buttermilk, supplied by Calbiochem Novabiochem Corp.) was prepared at 30.6 mU/mL using a 100 mM phosphate buffer solution and 73.5 μL/well of each solution was added. Immediately after mixing, the change in absorbance at 290 nm was measured for 5 minutes. The enzyme activity when DMSO was used instead of a test compound solution was defined as 100%, the inhibitory rate of the test compounds was calculated and the 50% inhibitory concentration with respect to oxidase type xanthine oxidase was calculated by fitting to the dose-response curve.
Note that the symbols (+, ++, +++) in the table represent inhibitory activity values as shown below.
“1-[5-(4-acetophenyl)-4-cyanopyridin-2-yl]-1H-pyrazole-4-carboxylic acid [Compound 71]”: the IC50 fell in the range of 1 to 5 nM.
On to `COc1ccc(-c2cnc(-n3cc(C(=O)O)cn3)cc2C#N)cc1` [Compound 2, 1-[4-cyano-5-(4-methoxyphenyl)pyridin-2-yl]-1H-pyrazole-4-carboxylic acid], for which the IC50 is 1 to 5 nM.
`CCOc1ccccc1-c1cnc(-n2cc(C(=O)O)cn2)cc1C#N` [Compound 3, 1-[4-cyano-5-(2-ethoxyphenyl)pyridin-2-yl]-1H-pyrazole-4-carboxylic acid]: the IC50 fell in the range of 5 to 10 nM.
Take `Cc1ccccc1-c1cnc(-n2cc(C(=O)O)cn2)cc1C#N` [Compound 4, 1-[4-cyano-5-(2-methylphenyl)pyridin-2-yl]-1H-pyrazole-4-carboxylic acid]: the IC50 fell in the range of 5 to 10 nM.
On to `N#Cc1cc(-n2cc(C(=O)O)cn2)ncc1-c1ccccc1F` [Compound 5, 1-[4-cyano-5-(2-fluorophenyl)pyridin-2-yl]-1H-pyrazole-4-carboxylic acid], for which the IC50 is 1 to 5 nM.
As to `N#Cc1cc(-n2cc(C(=O)O)cn2)ncc1-c1ccccc1Cl` [Compound 6, 1-[4-cyano-5-(2-chlorophenyl)pyridin-2-yl]-1H-pyrazole-4-carboxylic acid], the IC50 fell in the range of 1 to 5 nM.
Consider `COc1ccccc1-c1cnc(-n2cc(C(=O)O)cn2)cc1C#N` [Compound 7, 1-[4-cyano-5-(2-methoxyphenyl)pyridin-2-yl]-1H-pyrazole-4-carboxylic], for which the IC50 fell in the range of 1 to 5 nM.
`N#Cc1cc(-n2cc(C(=O)O)cn2)ncc1-c1ccccc1C(F)(F)F` [Compound 8, 1-{4-cyano-5-[2-(trifluoromethyl)phenyl]pyridin-2-yl}-1H-pyrazole-4-carboxylic acid]: the IC50 is ≥ 10 nM.
As for `N#Cc1cc(-n2cc(C(=O)O)cn2)ncc1-c1ccccc1OC(F)(F)F` [Compound 9, 1-{4-cyano-5-[2-(trifluoromethoxy)phenyl]pyridin-2-yl]-1H-pyrazole-4-carboxylic acid], the figure is ≥ 10 nM; as for `Cc1cccc(-c2cnc(-n3cc(C(=O)O)cn3)cc2C#N)c1` [Compound 10, 1-[4-cyano-5-(3-methylphenyl)pyridin-2-yl]-1H-pyrazole-4-carboxylic acid], 1 to 5 nM.
`N#Cc1cc(-n2cc(C(=O)O)cn2)ncc1-c1cccc(F)c1` [Compound 11, 1-[4-cyano-5-(3-fluorophenyl)pyridin-2-yl]-1H-pyrazole-4-carboxylic acid]: the IC50 is 5 to 10 nM.
Consider `N#Cc1cc(-n2cc(C(=O)O)cn2)ncc1-c1cccc(Cl)c1` [Compound 12, 1-[4-cyano-5-(3-chlorophenyl)pyridin-2-yl]-1H-pyrazole-4-carboxylic acid], for which the IC50 lay within 5 to 10 nM.
In the case of `COc1cccc(-c2cnc(-n3cc(C(=O)O)cn3)cc2C#N)c1` [Compound 13, 1-[4-cyano-5-(3-methoxyphenyl)pyridin-2-yl]-1H-pyrazole-4-carboxylic acid], the IC50 was in the range of 1 to 5 nM.
`Cc1ccc(-c2cnc(-n3cc(C(=O)O)cn3)cc2C#N)cc1` [Compound 14, 1-[4-cyano-5-(4-methylphenyl)pyridin-2-yl]-1H-pyrazole-4-carboxylic acid]: the IC50 fell in the range of 1 to 5 nM.
For the compound `N#Cc1cc(-n2cc(C(=O)O)cn2)ncc1-c1ccc(Cl)cc1` [Compound 15, 1-[4-cyano-5-(4-chlorophenyl)pyridin-2-yl]-1H-pyrazole-4-carboxylic acid], the IC50 is 1 to 5 nM.
Regarding `N#Cc1cc(-n2cc(C(=O)O)cn2)ncc1-c1ccc(O)cc1` [Compound 16, 1-[4-cyano-5-(4-hydroxyphenyl)pyridin-2-yl]-1H-pyrazole-4-carboxylic acid], the IC50 was 1 to 5 nM.
The value for `CCOc1cccc(F)c1-c1cnc(-n2cc(C(=O)O)cn2)cc1C#N` [Compound 17, 1-[4-cyano-5-(2-ethoxy-6-fluorophenyl)pyridin-2-yl]-1H-pyrazole-4-carboxylic acid] was 5 to 10 nM.
